Patent US5610297A, “Peptides ketoamides” (Georgia Tech Research Corp., priority 1995, dated 1997)

What was measured:
[1] = test system: Calpain-mediated breakdown of spectrin in platelets; experiment: Platelet membrane permeability assay; assay type: cell-based, rat; set-up: key: +++ = excellent activity; ++ = good activity; + = moderate activity; quantitative measurements not yet complete; conditions: class symbols; quantitative measurements not yet complete
Procedure: Platelet membrane permeability assay. Calpain-mediated breakdown of spectrin was measured by quantitative densitometry of the calpain-specific 150/155 kDa spectrin fragment doublet [see Siman et al., Proc. Natl. Acad. Sci. USA 81, 3572-3576 (1984)]. Platelets were isolated by a modification of the method of Ferrell and Martin [J. Biol. Chem. 264, 20723-20729 (1989)]. Blood (15-20 ml) was drawn from male Sprague-Dawley rats into 1/10th volume of 100 mM EDTA-citrate, and centrifuged 10 minutes at 2000 rpm in a clinical centrifuge at room temperature. […] Platelets were washed once in 15 ml buffer 1, then resuspended to 10^7 cells/ml in buffer 2 (136 mM NaCl, 2.7 mM KCl, 0.42 mM NaH2 PO4, 12 mM NaHCO3, 2mM MgCl, 1 mg/ml BSA (Sigma), 5.6 mM glucose, 20 mM HEPES (Sigma) pH 7.4) and allowed to "rest" for a minimum of 10 minutes at room temperature before use.
Inhibitors were added from stock solutions made fresh in DMSO. 100 μl platelets, suspended to 10^7 cells/ml in buffer 2, were incubated with 1 μl of an inhibitor solution for 5 minutes at room temperature prior to the addition of 2 mM Ca^2+ and 1 uM A23 187. After 10 minutes total exposure to inhibitor (5 minutes exposure to ionophore) at room temperature, platelets were reisolated at 14,000 rpm for 10 sec in a Beckman microfuge, dissolved in SDS-PAGE sample buffer, and heated to 90° C. for 3 minutes.
Samples were subjected to SDS-PAGE in 4-12% gradient mini gels (Novex) and transferred to nitrocellulose (Schleicher and Schuell 0.45 um) by electroblotting. Filters were blocked for 10 minutes in 0.25% gelatin, 1% BSA, 0.25% triton X100, 0.9% NaCl, 10 mM Tris-Cl pH 7.5, incubated overnight in the same solution containing antibody to rat spectrin, washed 3×10 minutes with 10 mM Tris-Cl pH 7.5, 0.5% triton X100, incubated 4 hours in wash buffer plus alkaline phosphatase conjugated goat anti-rabbit antibody (Biorad), and washed as above. Blots were developed using the Biorad AP conjugate substrate kit. Quantitative densitometry was used to obtain values for the intact spectrin bands and the 150/155 kDa breakdown product doublet.

[2] = Half-life in plasma; assay type: in vitro ADME; conditions: unit inferred, unit assumed
[3] = biological target: cathepsin B (Homo sapiens, UniProt P07858); conditions: reported by Hu and Abeles; cited from earlier work
[4] = biological target: T1, papain (Carica papaya, UniProt P00784); conditions: reported by Hu and Abeles; cited from earlier work
T1 sequence (P00784 134-345): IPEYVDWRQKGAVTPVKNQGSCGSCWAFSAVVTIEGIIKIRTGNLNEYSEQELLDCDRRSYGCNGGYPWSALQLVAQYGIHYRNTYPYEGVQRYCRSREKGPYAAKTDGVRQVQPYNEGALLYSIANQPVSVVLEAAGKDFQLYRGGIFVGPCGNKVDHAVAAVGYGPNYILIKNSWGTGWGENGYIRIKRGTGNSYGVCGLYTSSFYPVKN

| SMILES | platelet (Activity in the Platelet Assay) [1] | t 1/2 plasma [2] | Ki [3] | Ki [4] |
| --- | --- | --- | --- | --- |
| CC[C@H](NC(=O)[C@H](CC(C)C)NC(=O)OCc1ccccc1)C(=O)C(=O)OCc1ccccc1 [Z--Leu--Abu--COOBzl] | ++ |  |  |  |
| CCOC(=O)C(=O)[C@H](Cc1ccccc1)NC(=O)[C@H](CC(C)C)NC(=O)[C@H](CC(C)C)NC(=O)OCc1ccccc1 [Z--Leu--Leu--Phe--COOEt] | ++ |  |  |  |
| CCOC(=O)C(=O)C(CCSC)NC(=O)C(CC(C)C)NC(=O)OCc1ccccc1 (stereo not shown) [Z--Leu--Met--COOEt] | + | 8 min |  |  |
| CC(C)CC(NC(=O)OCc1ccccc1)C(=O)NC(Cc1ccccc1)C(=O)C(=O)OCc1ccccc1 (stereo not shown) [Z--Leu--Phe--COOBz] | ++ | 1.9 min |  |  |
| CCCCOC(=O)C(=O)[C@H](Cc1ccccc1)NC(=O)[C@H](CC(C)C)NC(=O)OCc1ccccc1 [Z--Leu--Phe--COOnBu] | +++ | 7.7 min |  |  |
| CCNC(=O)C(=O)CNC(=O)[C@H](Cc1ccccc1)NC(=O)OCc1ccccc1 [Z-Phe-Gly-CO--NH-Et] |  |  | 4 µM | 1.5 µM |
